Results taken from patent US12527849B2, “Apparatus for determining administration form of a composition of an engineered virus-based nanoparticle for a treatment of an autoimmune condition” (Diamante Srl, priority 2021, dated 2026).

System: IL-1β
Test: Pro-inflammatory cytokines in sera of CIA Collagen mice (ELISA, day 58): IL-1β
Type: in vivo
Details: Dexamethasone oral 1 mg/kg, 20 times between day 28 and 57
Description: Critical administration 124 disclosed herein is further described below. Q5D represents administration 5 days a part. TBSV·pLIp1 and wt TBSV shown in Table 1 may include liquid form that are not sterile and stored in −20° C. TBSV·pLIp1 may be given at the dose of 50 μG/100 μL Male DBA/1J mice (8 weeks; Envigo, Italy) may be used for these studies. Mice may be housed in individual cages (two for each group) and maintained under a 12:12 light-dark cycle at 21° C.±1° C. and 50%±5% humidity. The animals may be acclimated to their environment for 1 week and had ad libitum access to tap water and standard rodent diet. All animal experiments may be complied with regulations in Italy (D.M. 116192), Europe (O.J of E.C. L 358/112/18/1986), and the United States (Animal Welfare Assurance Number A5594-01, Department of Health and Human Services, USA). […] Arthritis was assessed by using qualitative severity score system and hind paw volume (mL) measured by a plethysmometer on day 20, 22, 24, 26, 28, 30, 32, 34, 36, 38, 40, 42, 44, 46 48, 50, 52, 54, 56 and 58. Body weight was recorded on day 0, 6, 13, 16, 18, 20, 22, 24, 26, 28, 30, 32, 34, 36, 38, 40, 42, 44, 46, 50, 52, 54, 56 and 58. […]

## C[C@@H]1C[C@H]2[C@@H]3CCC4=CC(=O)C=C[C@]4(C)[C@@]3(F)[C@@H](O)C[C@]2(C)[C@@]1(O)C(=O)CO [Dexamethasone, dexamethasone]
  IL-1β, % of reduction vs CIA Collagen: 22.74%
